Experimental data taken from the supplement of paper PMC8617591.

Legend:
[1] = test system: Mycobacterium tuberculosis Erdman (autoluminescent); test: AUC25, normalised area under dose response up to IC25 (three-drug combination) (fraction (0-1)); higher = more potent at low dose
Experimental: (§1)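 DiaMOND equipotent three-drug combination dose responses (10 doses, 1.5- or 2-fold spacing, centred on IC90) against autoluminescent M. tuberculosis Erdman in 8 in vitro models. Read-out is OD600, or luminescence for the intracellular and dormancy models, normalised to untreated wells. Hill-fit Einf, AUC25 and GRinf are potency metrics; FIC50 and FIC90 are total Loewe fractional inhibitory concentrations as log2 (negative = synergy).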

[2] = test system: Mycobacterium tuberculosis Erdman (autoluminescent); test: total FIC50 (Loewe) at 50% inhibition, three-drug combination (log2); higher = more antagonistic
Experimental: as §1

[3] = test system: Mycobacterium tuberculosis Erdman (autoluminescent); test: total FIC90 (Loewe) at 90% inhibition, three-drug combination (log2); higher = more antagonistic
Experimental: as §1

[4] = test system: Mycobacterium tuberculosis Erdman (autoluminescent); test: Einf, fitted maximum growth inhibition of three-drug combination (fraction); higher = stronger maximal inhibition
Experimental: as §1

[5] = test system: Mycobacterium tuberculosis Erdman (autoluminescent); test: GRinf, maximum normalised growth rate inhibition (three-drug combination) (unitless (-1 to 1)); higher = less effect (negative = killing)
Experimental: as §1

CC[C@@H](CO)NCCN[C@@H](CC)CO [ethambutol] + NC(=O)c1cnccn1 [pyrazinamide] + CO[C@H]1/C=C/O[C@@]2(C)Oc3c(C)c(O)c4c(O)c(c(/C=N/N5CCN(C)CC5)c(O)c4c3C2=O)NC(=O)/C(C)=C\C=C\[C@H](C)[C@H](O)[C@@H](C)[C@@H](O)[C@@H](C)[C@H](OC(C)=O)[C@@H]1C [rifampicin]
Details	AUC25, [1]	Einf, [4]	GRinf, [5]	total FIC50, [2]	total FIC90, [3]
in vitro model: acidic pH 5.7, time point: constant (~7 days, model-specific)	0.0703	0.91	-0.349	-0.177	–
in vitro model: acidic pH 5.7, time point: terminal (~4-5 doublings, model-specific)	0.0348	0.982	-0.218	0.428	-0.924
in vitro model: intracellular J774, time point: constant = terminal	–	0.966	-0.396	–	-2.06

Details	AUC25, [1]	Einf, [4]	GRinf, [5]	total FIC50, [2]	total FIC90, [3]
in vitro model: butyrate, time point: constant (~7 days, model-specific)	0.0895	0.919	0.0103	0.151	–
in vitro model: butyrate, time point: terminal (~4-5 doublings, model-specific)	0.0793	0.964	0.024	0.114	-0.38
in vitro model: cholesterol 0.05 mM, time point: constant (~7 days, model-specific)	0.089	0.596	0.0152	–	–
in vitro model: cholesterol 0.05 mM, time point: terminal (~4-5 doublings, model-specific)	0.105	0.954	-0.297	1.25	–
in vitro model: cholesterol-high 0.2 mM, time point: constant (~7 days, model-specific)	0.0452	0.964	-0.34	1.12	–
in vitro model: cholesterol-high 0.2 mM, time point: terminal (~4-5 doublings, model-specific)	0.043	0.995	-0.69	1.15	0.828
in vitro model: dormancy (butyrate + nitrate, low O2), time point: constant (~7 days, model-specific)	0.134	0.906	0.291	-1.12	–
in vitro model: dormancy (butyrate + nitrate, low O2), time point: terminal (~4-5 doublings, model-specific)	0.0829	0.989	-0.155	-0.532	0.414
in vitro model: standard 7H9 glycerol, time point: constant = terminal	0.0436	0.897	0.134	0.0958	–
in vitro model: valerate, time point: constant (~7 days, model-specific)	0.0382	0.854	0.143	0.23	–
in vitro model: valerate, time point: terminal (~4-5 doublings, model-specific)	0.0278	0.92	0.0943	0.205	-0.873

CC[C@@H](CO)NCCN[C@@H](CC)CO [ethambutol] + NNC(=O)c1ccncc1 [isoniazid] + CC(=O)NC[C@H]1CN(c2ccc(N3CCOCC3)c(F)c2)C(=O)O1 [linezolid]
Details	AUC25, [1]	Einf, [4]	GRinf, [5]	total FIC50, [2]	total FIC90, [3]
in vitro model: acidic pH 5.7, time point: constant (~7 days, model-specific)	0.108	0.831	-0.311	0.672	–
in vitro model: acidic pH 5.7, time point: terminal (~4-5 doublings, model-specific)	0.0511	0.939	-0.218	1.64	0.241
in vitro model: intracellular J774, time point: constant = terminal	–	0.958	-0.189	–	-0.0766

Details	AUC25, [1]	Einf, [4]	GRinf, [5]	total FIC50, [2]	total FIC90, [3]
in vitro model: butyrate, time point: constant (~7 days, model-specific)	0.101	0.9	0.0696	0.578	–
in vitro model: butyrate, time point: terminal (~4-5 doublings, model-specific)	0.0839	0.943	0.0902	0.593	1.01
in vitro model: cholesterol 0.05 mM, time point: constant (~7 days, model-specific)	0.148	0.693	-0.305	-0.315	–
in vitro model: cholesterol 0.05 mM, time point: terminal (~4-5 doublings, model-specific)	0.166	0.918	-0.286	-1.8	–
in vitro model: cholesterol-high 0.2 mM, time point: constant (~7 days, model-specific)	0.102	0.925	-0.717	0.686	–
in vitro model: cholesterol-high 0.2 mM, time point: terminal (~4-5 doublings, model-specific)	0.121	1	-0.966	0.382	1.42
in vitro model: dormancy (butyrate + nitrate, low O2), time point: constant (~7 days, model-specific)	0.117	0.801	0.434	0.669	–
in vitro model: dormancy (butyrate + nitrate, low O2), time point: terminal (~4-5 doublings, model-specific)	0.1	0.971	-0.188	0.326	0.438
in vitro model: standard 7H9 glycerol, time point: constant = terminal	0.0661	0.911	0.099	0.88	–
in vitro model: valerate, time point: constant (~7 days, model-specific)	0.127	0.91	-0.184	0.573	–
in vitro model: valerate, time point: terminal (~4-5 doublings, model-specific)	0.0732	0.944	-0.0217	0.769	0.881

CC[C@@H](CO)NCCN[C@@H](CC)CO [ethambutol] + NNC(=O)c1ccncc1 [isoniazid] + CO[C@H]1/C=C/O[C@@]2(C)Oc3c(C)c(O)c4c(O)c(c(/C=N/N5CCN(C6CCCC6)CC5)c(O)c4c3C2=O)NC(=O)/C(C)=C\C=C\[C@H](C)[C@H](O)[C@@H](C)[C@@H](O)[C@@H](C)[C@H](OC(C)=O)[C@@H]1C [rifapentine]
Details	AUC25, [1]	Einf, [4]	GRinf, [5]	total FIC50, [2]	total FIC90, [3]
in vitro model: acidic pH 5.7, time point: constant (~7 days, model-specific)	0.116	0.926	-0.233	-0.0354	–
in vitro model: acidic pH 5.7, time point: terminal (~4-5 doublings, model-specific)	0.0443	0.974	-0.12	0.316	-0.0587
in vitro model: intracellular J774, time point: constant = terminal	–	0.961	-0.299	–	-1.77

Details	AUC25, [1]	Einf, [4]	GRinf, [5]	total FIC50, [2]	total FIC90, [3]
in vitro model: butyrate, time point: constant (~7 days, model-specific)	0.0656	0.919	-0.00839	0.419	–
in vitro model: butyrate, time point: terminal (~4-5 doublings, model-specific)	0.0504	0.961	0.0115	0.431	-0.175
in vitro model: cholesterol 0.05 mM, time point: constant (~7 days, model-specific)	0.0782	0.62	0.0218	0.251	–
in vitro model: cholesterol 0.05 mM, time point: terminal (~4-5 doublings, model-specific)	0.0679	0.705	0.236	0.672	–
in vitro model: cholesterol-high 0.2 mM, time point: constant (~7 days, model-specific)	0.0261	0.963	-0.465	1.28	–
in vitro model: cholesterol-high 0.2 mM, time point: terminal (~4-5 doublings, model-specific)	0.0378	1	-0.581	1.47	1.31
in vitro model: dormancy (butyrate + nitrate, low O2), time point: constant (~7 days, model-specific)	0.123	0.85	0.351	0.273	–
in vitro model: dormancy (butyrate + nitrate, low O2), time point: terminal (~4-5 doublings, model-specific)	0.118	0.99	-0.216	0.00837	0.792
in vitro model: standard 7H9 glycerol, time point: constant = terminal	0.0469	0.904	0.0971	0.347	–
in vitro model: valerate, time point: constant (~7 days, model-specific)	0.0468	0.866	0.0486	0.524	–
in vitro model: valerate, time point: terminal (~4-5 doublings, model-specific)	0.0336	0.929	0.0406	0.609	-0.125
